Values quoted from earlier work in patent publication US20260199305A1, “LONG-ACTING ORAL PHARMACEUTICAL COMPRISING HYPOXIA-INDUCIBLE FACTOR PROLYL HYDROLASE INHIBITOR AND USE THEREOF” (Kind Pharmaceutical, priority 2023, published 2026).
Where two headings read alike, the source gives them in different places.

Details: cited from earlier work

Row | SMILES | t½ (literature value) | also measured
1 | Cn1c(=O)cc(N2CCC[C@@H](N)C2)n(Cc2cc(F)ccc2C#N)c1=O [Trelagliptin] | – | elimination half-life (t½) (literature value (J Diabetes Investig 2018)): 38.44 to 54.26 h
2 | O=C(O)CNC(=O)C1C(=O)N(C2CCCCC2)C(=O)N(C2CCCCC2)C1=O [Daprodustat] | – | t½ (in patients with chronic kidney disease anemia, literature): ~ 7 hours
3 | Cc1nc(C(=O)NCC(=O)O)c(O)c2ccc(Oc3ccccc3)cc12 [Roxadustat] | 12 to 15 h | –
4 | O=c1c(-n2ccnn2)c[nH]n1-c1cc(N2CCOCC2)ncn1 [Molidustat] | 4 to 10 h | –
5 | O=C(O)CNC(=O)c1c(O)c2ccccc2n(OCC2CC2)c1=O [Desidustat] | 6 to 15 h | –
6 | O=C(O)CNC(=O)c1ncc(-c2cccc(Cl)c2)cc1O [Vadadustat] | 4.7 to 9.1 h | –
7 | O=C(O)CNC(=O)c1c(O)cc(CCc2ccccc2)n2ncnc12 [Enarodustat] | 8.2 to 8.7 h | –
